Laboratory results as given in patent US12662489B2 (Sitryx Therapeutics Limited, priority 2023, dated 2026).
pIC50: −log10 of the molar value.

What was measured:
[1] = biological target: T1, MTHFD2 recombinant human enzyme (Homo sapiens, UniProt P13995); assay: MTHFD2 inhibition assay (NAD(P)H-Glo luminescence); settings: for MTHFD1/MTHFD2 IC50 ratio: selectivity of MTHFD2 inhibition over MTHFD1, band
T1 sequence (P13995 36-350): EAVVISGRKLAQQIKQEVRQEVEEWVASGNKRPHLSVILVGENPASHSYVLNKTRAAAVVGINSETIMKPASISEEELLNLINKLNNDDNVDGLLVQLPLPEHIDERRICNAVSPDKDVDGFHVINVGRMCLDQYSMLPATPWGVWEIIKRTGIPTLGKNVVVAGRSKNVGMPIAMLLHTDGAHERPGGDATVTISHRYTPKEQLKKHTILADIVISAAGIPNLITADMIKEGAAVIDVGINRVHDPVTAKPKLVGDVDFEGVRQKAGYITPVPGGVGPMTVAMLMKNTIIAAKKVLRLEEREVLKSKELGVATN

[2] = biological target: T2, MTHFD1 recombinant human enzyme (Homo sapiens, UniProt P11586); assay: MTHFD1 inhibition assay (NAD(P)H-Glo luminescence); settings: MTHFD1 IC50, recombinant human enzyme 200 nM, NADP, band
T2 sequence (P11586 2-291 limits assumed): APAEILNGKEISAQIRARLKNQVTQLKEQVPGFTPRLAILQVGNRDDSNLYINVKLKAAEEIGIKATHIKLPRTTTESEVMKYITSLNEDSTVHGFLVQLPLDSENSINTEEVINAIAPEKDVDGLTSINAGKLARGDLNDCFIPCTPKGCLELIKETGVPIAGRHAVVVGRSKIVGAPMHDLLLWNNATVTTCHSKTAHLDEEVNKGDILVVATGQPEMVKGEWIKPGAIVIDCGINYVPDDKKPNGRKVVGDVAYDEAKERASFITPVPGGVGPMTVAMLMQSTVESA

Structure (SMILES)	pIC50 [1]	MTHFD1/MTHFD2 IC50 ratio [1]	pIC50 [2]
COC[C@H]1CN(c2ccc3c4c(c(=O)oc3c2C)CN(C(=O)c2ccc(C(=O)NS(=O)(=O)N(C)C(C)C)c(OC3CCC3)c2F)CC4)CCN1C [Example 56, (R)-2-cyclobutoxy-3-fluoro-N-(N-isopropyl-N-methylsulfamoyl)-4-(8-(3-(methoxymethyl)-4-methylpiperazin-1-yl)-7-methyl-5-oxo-1,3,4,5-tetrahydro-2H-chromeno[3,4-c]pyridine-3-carbonyl)benzamide]	8.00 to 9.00	F (<3)	8.00 to 9.00
COC[C@H]1CN(c2cc(C)c3c4c(c(=O)oc3c2C)CN(C(=O)c2ccc(C(=O)NS(=O)(=O)N(C)C)c(N3CCCC5(CC5)C3)c2)CC4)CCN1C [Example 120, (R)-N-(N,N-dimethylsulfamoyl)-4-(8-(3-(methoxymethyl)-4-methylpiperazin-1-yl)-7,10-dimethyl-5-oxo-1,3,4,5-tetrahydro-2H-chromeno[3,4-c]pyridine-3-carbonyl)-2-(5-azaspiro[2.5]octan-5-yl)benzamide]	7.00 to 8.00	F (<3)	6.00 to 7.00
COC[C@H]1CN(c2ccc3c4c(c(=O)oc3c2Cl)CN(C(=O)c2ccc(C(=O)NS(=O)(=O)N(C)C(C)C)c(OC3CCC3)c2F)CC4)CCN1C [Example 30, (R)-4-(7-chloro-8-(3-(methoxymethyl)-4-methylpiperazin-1-yl)-5-oxo-1,3,4,5-tetrahydro-2H-chromeno[3,4-c]pyridine-3-carbonyl)-2-cyclobutoxy-3-fluoro-N-(N-isopropyl-N-methylsulfamoyl)benzamide]	7.00 to 8.00	F (<3)	7.00 to 8.00
Cc1c(N2CCN(C)[C@@H](COC(C)C)C2)ccc2c3c(c(=O)oc12)CN(C(=O)c1ccc(C(=O)NS(=O)(=O)N2CCCC2)c(OC2CCC2)c1F)CC3 [Example 192, (R)-2-cyclobutoxy-3-fluoro-4-(8-(3-(isopropoxymethyl)-4-methylpiperazin-1-yl)-7-methyl-5-oxo-1,3,4,5-tetrahydro-2H-chromeno[3,4-c]pyridine-3-carbonyl)-N-(pyrrolidin-1-ylsulfonyl)benzamide]	6.00 to 7.00	F (<3)	6.00 to 7.00

Continued, values first:

pIC50 [1]	MTHFD1/MTHFD2 IC50 ratio [1]	pIC50 [2]	Structure (SMILES)
7.00 to 8.00	G (^ 3 to 9.0)	6.00 to 7.00	CCOc1c(C(=O)NS(=O)(=O)N2CC3CCC(C3)C2)ccc(C(=O)N2CCc3c(c(=O)oc4c(C)c(N5CCN(C)[C@@H](COC)C5)cc(C)c34)C2)c1F [Example 235]
7.00 to 8.00	F (<3)	7.00 to 8.00	COC[C@H]1CN(c2cc(C)c3c4c(c(=O)oc3c2C)CN(C(=O)c2ccc(C(=O)NS(=O)(=O)N3CCCC3)c(OC3C5CC6CC(C5)CC3C6)c2F)CC4)CCN1C (stereo partly drawn) [Example 94, 2-((adamantan-2-yl)oxy)-3-fluoro-4-(8-((R)-3-(methoxymethyl)-4-methylpiperazin-1-yl)-7,10-dimethyl-5-oxo-1,3,4,5-tetrahydro-2H-chromeno[3,4-c]pyridine-3-carbonyl)-N-(pyrrolidin-1-ylsulfonyl)benzamide]
8.00 to 9.00	J (>30)	6.00 to 7.00	COC[C@H]1CN(c2cc(Cl)c3c4c(c(=O)oc3c2C)CN(C(=O)c2cc(N(C)C)c(C(=O)NS(=O)(=O)N(C)C3CC3)cc2F)CC4)CCN1C [Example 323, (R)-4-(10-chloro-8-(3-(methoxymethyl)-4-methylpiperazin-1-yl)-7-methyl-5-oxo-1,3,4,5-tetrahydro-2H-chromeno[3,4-c]pyridine-3-carbonyl)-N-(N-cyclopropyl-N-methylsulfamoyl)-2-(dimethylamino)-5-fluorobenzamide]
8.00 to 9.00	–	8.00 to 9.00	COC[C@H]1CN(c2ccc3c4c(c(=O)oc3c2C)CN(C(=O)c2ccc(C(=O)NS(=O)(=O)N(C)C(C)C)c(OC3CCCC3)c2F)CC4)CCN1C [Example 58, (R)-2-(cyclopentyloxy)-3-fluoro-N-(N-isopropyl-N-methylsulfamoyl)-4-(8-(3-(methoxymethyl)-4-methylpiperazin-1-yl)-7-methyl-5-oxo-1,3,4,5-tetrahydro-2H-chromeno[3,4-c]pyridine-3-carbonyl)benzamide]
